Common to all, as to type: functional, cell-based
One assay deals with MOLT-4. The experiment in a line: Antiproliferative activity against human MOLT-4 cells assessed as growth inhibition after 48 hrs by PrestoBlue dye based fluorescence assay. The conditions noted are these: MOLT-4, 48 h.
A short description of assay [1]: Antiproliferative activity against human M249 cells assessed as growth inhibition after 48 hrs by PrestoBlue dye based fluorescence assay. Particulars: M249, 48 h.
Assay [2] can be described thus: Antiproliferative activity against human COLO357/FG cells assessed as growth inhibition after 48 hrs by PrestoBlue dye based fluorescence assay. The conditions noted are these: COLO 357/FG.
For another assay, the system named is MDA-MB-231. The experiment in a line: Antiproliferative activity against human MDA-MB-231 cells assessed as growth inhibition after 48 hrs by PrestoBlue dye based fluorescence assay. The conditions noted are these: MDA-MB-231, 48 h.
The next assay relates to MCF7. The experiment in a line: Antiproliferative activity against human MCF7 cells assessed as growth inhibition after 48 hrs by PrestoBlue dye based fluorescence assay. Particulars: MCF7, 48 h.
Another assay concerns VCaP. The experiment in a line: Antiproliferative activity against human VCap cells assessed as growth inhibition after 48 hrs by PrestoBlue dye based fluorescence assay.
Another assay relates to FaDu. The experiment in a line: Antiproliferative activity against human FADU cells assessed as growth inhibition after 48 hrs by PrestoBlue dye based fluorescence assay.
The next assay relates to DU-145. The experiment in a line: Antiproliferative activity against human DU145 cells assessed as growth inhibition after 48 hrs by PrestoBlue dye based fluorescence assay. Particulars: DU-145, 48 h.
Assay [3] in a line: Antiproliferative activity against human UM-SCC-6 cells assessed as growth inhibition after 48 hrs by PrestoBlue dye based fluorescence assay. Particulars: UM-SCC-6, 48 h.
The nature of assay [4]: Antiproliferative activity against human UM-SCC-5 cells assessed as growth inhibition after 48 hrs by PrestoBlue dye based fluorescence assay. Particulars: UM-SCC-5, 48 h.
Another assay relates to SW480. The experiment in a line: Antiproliferative activity against human SW480 cells assessed as growth inhibition after 48 hrs by PrestoBlue dye based fluorescence assay. Particulars: SW480, 48 h.
The test system of a further assay is T84. The experiment in a line: Antiproliferative activity against human T84 cells assessed as growth inhibition after 48 hrs by PrestoBlue dye based fluorescence assay. The conditions noted are these: T84, 48 h.
A further assay deals with HCC1954. The experiment in a line: Antiproliferative activity against human HCC1954 cells assessed as growth inhibition after 48 hrs by PrestoBlue dye based fluorescence assay. Particulars: HCC1954, 48 h.
The subject of the next assay is SK-MEL-28. The experiment in a line: Antiproliferative activity against human SK-MEL-28 cells assessed as growth inhibition after 48 hrs by PrestoBlue dye based fluorescence assay. The conditions noted are these: SK-MEL-28, 48 h.
Assay [5] in a line: Antiproliferative activity against human BTTR cells assessed as growth inhibition after 48 hrs by PrestoBlue dye based fluorescence assay.
Assay [6] in a line: Antiproliferative activity against human CEM-R cells assessed as growth inhibition after 48 hrs by PrestoBlue dye based fluorescence assay.
The next assay relates to NALM-6. The experiment in a line: Antiproliferative activity against human NALM6 cells assessed as growth inhibition after 48 hrs by PrestoBlue dye based fluorescence assay. Particulars: NALM-6, 48 h.
The next assay deals with BXPC-3. The experiment in a line: Antiproliferative activity against human BxPC3 cells assessed as growth inhibition after 48 hrs by PrestoBlue dye based fluorescence assay. The conditions noted are these: BXPC-3, 48 h.

Starred links: 1 amine or outer side, 2 acyl side, 3 side chain; linkers in the order of their positions; H or OH if unused. Non-standard residues stand in square brackets, D forms with d. Residues, ends and D or L forms follow the SMILES beside them. Pro(cis-4-OPh) = O=C(O)[C@@H]1C[C@H](Oc2ccccc2)CN1; Bip = N[C@@H](Cc1ccc(-c2ccccc2)cc1)C(=O)O; Cysteamide = C(CS[*:3])N[*:1]; Tle = CC(C)(C)[C@H](N)C(=O)O; NMeA = CN[C@@H](C)C(=O)O

`CN[C@@H](C)C(=O)N[C@H](C(=O)N1C[C@@H](Oc2ccccc2)C[C@H]1C(=O)N[C@@H](Cc1ccc(-c2ccccc2)cc1)C(=O)NCCS)C(C)(C)C` (H-[NMeA][Tle][Pro(cis-4-OPh)][Bip]-Cysteamide): the concentration for a half-maximal effect (EC50) in the assay with MOLT-4 was determined as 2.8 µM; in assay [1], 6.2 µM; in assay [2], 8 µM; with MDA-MB-231 it was 6 µM; in the assay on MCF7, 10.2 µM; with VCaP it was 7 µM. The EC50 was 3.9 µM in the assay with FaDu; 6.2 µM in the assay on DU-145; 6 µM in assay [3]; 5.9 µM in [4]; 9.2 µM in the assay with SW480; 6.2 µM in the assay with T84. The EC50 in the assay on HCC1954 is 3.9 µM; with SK-MEL-28, 6.1 µM; in assay [5] it was 9 µM; in assay [6], 2.9 µM; in the assay on NALM-6 it was 5.3 µM; in the assay on BXPC-3, 4.1 µM.

(Values after ChEMBL document CHEMBL4699443, “Position of lipidation influences anticancer activity of Smac analogs” (Bioorg Med Chem Lett, 2019).)
